Measurements from patent US20090209576A1, “PHARMACEUTICAL COMPOSITION CONTAINING CLOPIDOGREL CAMPHORSULFONATE OR POLYMORPHIC FORMS THEREOF” (HANMI PHARM. CO., LTD., priority 2006, published 2009).
Structures can show the parent of a compound that is named as a salt. Where two headings read alike, the source gives them in different places.

Assays:
[1] = physchem
Excerpt: (§1) Condition A: For the Measurement of the Assay of Acid Addition Salt of Clopidogrel
(§2) Column: Kromasil C18, 5 μm (250 mm×4.6 mm)
(§3) Mobile phase: Na2HPO4—NaH2PO4 buffer solution:TBF:CH3CN=5:2:3 (v/v)
The camphorsulfonate polymorphic form A1 obtained in Example 1, the camphorsulfonate polymorphic form B1 obtained in Example 2, the hydrogen sulfate obtained in Comparative Example 1 and the benzenesulfonate obtained in Comparative Example 2 were each dissolved in unionized water until saturated. The amounts of clopidogrel in the resulting solutions were measured under HPLC condition A, and the results are shown in Table 5.

[2] = for Amount of acid addition salts of clopidogrel / Amount of hydrolyzed impurities / Amount of levorotatory isomers / Water content: 60±2° C., 75±5% relative humidity; for water content / hygroscopicity under accelerated condition: 60° C. and 75% relative humidity for a period of over 28 days
Experimental: as §1, §2, §3
Condition B: For the Measurement of the Amount of Hydrolyzed Impurities of Acid Addition Salt of Clopidogrel
Column: Capcellpak C18 MG, 5 μm (250 mm×4.6 mm)
Mobile phase: KH2PO4 buffer solution/CH3CN (70/30):KH2PO4 buffer solution/CH3CN (30/70)=0:100→[…] (v/v, gradient elution)
Condition C: For the Measurement of the Optical Purity of Acid Addition Salt of Clopidogrel
Column: Chiralpak AD, 5 μm (250 mm×4.6 mm)
Mobile phase: n-hexane:isopropanol=90:10 (v/v)
The camphorsulfonate polymorphic form A1 obtained in Example 1, the camphorsulfonate polymorphic form B1 obtained in Example 2, the hydrogen sulfate obtained in Comparative Example 1 and the benzenesulfonate obtained in Comparative Example 2 were each subjected to a condition of 60±2° C. and 75±5% relative humidity for a period of 28 days to test their stabilities. The changes of the assay of the acid addition salts of clopidogrel, and the amounts of hydrolyzed impurities and levorotatory isomers thereof and the water content thereof were measured at 7, 14, 21 and 28 days relative to that of the initial day (0) using HPLC. The results are shown in Tables 6 to 9 and FIGS. 12 to 15, respectively.

[3] = dissolved in unionized water until saturated, HPLC condition A

## Clopidogrel benzenesulfonate [reference compound]
[1]; [3]
  Water-solubility: 4.74 mg/ml, as clopidogrel
[2]; 0 day
  Amount of acid addition salts of clopidogrel: 99.3%
  Amount of hydrolyzed impurities: 0.01%
  Amount of levorotatory isomers: 0.01%
  Water content: 0.1%
[2]; 7 days
  Amount of acid addition salts of clopidogrel: 93.9%
  Amount of hydrolyzed impurities: 2.79%
  Amount of levorotatory isomers: 0.81%
  Water content: 6.4%
[2]; 14 days
  Amount of acid addition salts of clopidogrel: 80.5%
  Amount of hydrolyzed impurities: 8.56%
  Amount of levorotatory isomers: 2.49%
  Water content: 7.3%
[2]; 21 days
  Water content: 9.2%
[2]; 28 days
  Amount of acid addition salts of clopidogrel: 61.7%
  Amount of hydrolyzed impurities: 25.33%
  Amount of levorotatory isomers: 4.79%
  Water content: 9.4%

## COC(=O)[C@H](c1ccccc1Cl)N1CCc2sccc2C1 [Camphorsulfonate (polymorphic form B1), clopidogrel (+)-(1S)-camphor-10-sulfonate]
[1]; [3]
  Water-solubility: 3.98 mg/ml, as clopidogrel
[1]; measured in a saturated aqueous solution
  Water-solubility: around 4.0 mg/ml
[2]
  water content / hygroscopicity under accelerated condition: almost maintain their original water contents
[2]; 0 day
  Amount of acid addition salts of clopidogrel: 99.6%
  Amount of hydrolyzed impurities: 0.01%
  Amount of levorotatory isomers: 0.01%
  Water content: 0.1%
[2]; 7 days
  Amount of acid addition salts of clopidogrel: 99.2%
  Amount of hydrolyzed impurities: 0.01%
  Amount of levorotatory isomers: 0.01%
  Water content: 0.1%
[2]; 14 days
  Amount of acid addition salts of clopidogrel: 99.9%
  Amount of hydrolyzed impurities: 0.02%
  Amount of levorotatory isomers: 0.02%
  Water content: 0.1%
[2]; 21 days
  Water content: 0.1%
[2]; 28 days
  Amount of acid addition salts of clopidogrel: 99.3%
  Amount of hydrolyzed impurities: 0.03%
  Amount of levorotatory isomers: 0.03%
  Water content: 0.1%

## COC(=O)[C@H](c1ccccc1Cl)N1CCc2sccc2C1 [Hydrogen sulfate, Clopidogrel hydrogen sulfate, reference compound]
[1]; [3]
  Water-solubility: 7.42 mg/ml, as clopidogrel
[2]; 0 day
  Amount of acid addition salts of clopidogrel: 99.2%
  Amount of hydrolyzed impurities: 0.03%
  Amount of levorotatory isomers: 0.01%
  Water content: 0.2%
[2]; 7 days
  Amount of acid addition salts of clopidogrel: 98.8%
  Amount of hydrolyzed impurities: 0.72%
  Amount of levorotatory isomers: 0.05%
  Water content: 0.3%
[2]; 14 days
  Amount of acid addition salts of clopidogrel: 97.5%
  Amount of hydrolyzed impurities: 2.15%
  Amount of levorotatory isomers: 0.19%
  Water content: 0.8%
[2]; 21 days
  Water content: 2.8%
[2]; 28 days
  Amount of acid addition salts of clopidogrel: 80.5%
  Amount of hydrolyzed impurities: 16.49%
  Amount of levorotatory isomers: 1.53%
  Water content: 7.3%

## COC(=O)C(c1ccccc1Cl)N1CCc2sccc2C1 (stereo in doubt) [Camphorsulfonate (polymorphic form A1), clopidogrel (−)-(1R)-camphor-10-sulfonate]
[1]; [3]
  Water-solubility: 4.04 mg/ml, as clopidogrel
[1]; unionized water, water, thermodynamic from solid
  solubility: ~4000 µg/mL
[2]
  water content / hygroscopicity under accelerated condition: almost maintain their original water contents
[2]; 0 day
  Amount of acid addition salts of clopidogrel: 99.2%
  Amount of hydrolyzed impurities: 0.01%
  Amount of levorotatory isomers: 0.02%
  Water content: 0.0%
[2]; 7 days
  Amount of acid addition salts of clopidogrel: 99.1%
  Amount of hydrolyzed impurities: 0.08%
  Amount of levorotatory isomers: 0.02%
  Water content: 0.1%
[2]; 14 days
  Amount of acid addition salts of clopidogrel: 99.6%
  Amount of hydrolyzed impurities: 0.15%
  Amount of levorotatory isomers: 0.02%
  Water content: 0.0%
[2]; 21 days
  Water content: 0.0%
[2]; 28 days
  Amount of acid addition salts of clopidogrel: 99.1%
  Amount of hydrolyzed impurities: 0.17%
  Amount of levorotatory isomers: 0.02%
  Water content: 0.1%
